Experiments:
THP-1 (AML) cells = assay: LSD1 CD11b cellular assay (flow cytometry); type: cell-based; conditions: Homo sapiens, 96 h; CD11b expression in THP-1 (AML) cells, flow cytometry, 4 days incubation; read-out: Cellular IC50
In short: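 THP-1 AML cells treated with serially diluted compound (0.2% DMSO final) for 4 days at 37 °C, 5% CO2. CD11b expression measured by flow cytometry with DAPI staining; IC50 derived from percent CD11b-positive cells versus inhibitor concentration.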

full-length human LSD1 = full-length human LSD1 (Homo sapiens (Human), UniProt O60341); assay: In vitro enzyme inhibition assay LSD-1 (TR-FRET); type: biochemical; conditions: TR-FRET, 0.1 nM LSD1, 50 nM H3K4me1-biotin peptide, 2 μM FAD, pH7.3; read-out: LSD1 IC50
Procedure: This assay determines the ability of a test compound to inhibit LSD1 demethylase activity.
The enzymatic assay of LSD1 activity is based on Time Resolved-Fluorescence Resonance Energy Transfer (TR-FRET) detection.
The ability of the compounds disclosed herein to inhibit LSD1 activity was quantified and the respective IC50 value was determined. Table 5 provides the IC50 values of various substituted heterocyclic compounds disclosed herein.

Row | SMILES | IC50 (THP-1 (AML) cells) | IC50 (full-length human LSD1)
1 | CNc1ncc(-c2cnc(N3CCC(N)CC3)nc2-c2ccc(C#N)c(F)c2)cn1 [Example 140, 4-[2-(4-aminopiperidin-1-yl)-5-[2-(methylamino)pyrimidin-5-yl]pyrimidin-4-yl]-2-fluorobenzonitrile] | 100 to 1000 nM | < 100 nM
2 | Cn1cc2cc(-c3cnc(N4CC5C(N)C5C4)nc3-c3ccc(C#N)c(F)c3)ccc2n1 (stereo not drawn) [Example 144, 4-[2-(6-amino-3-azabicyclo[3.1.0]hexan-3-yl)-5-(2-methylindazol-5-yl)pyrimidin-4-yl]-2-fluorobenzonitrile] | 100 to 1000 nM | < 100 nM
3 | N#Cc1ccc(-c2nc(N3CCC4CNCC4CC3)ncc2-c2ccc3scnc3c2)cc1 (stereo not drawn) [Example 146, 4-[2-(2,3,3a,4,5,7,8,8a-octahydro-1H-pyrrolo[3,4-d]azepin-6-yl)-5-(1,3-benzothiazol-5-yl)pyrimidin-4-yl]benzonitrile] | < 100 nM | < 100 nM
4 | COc1nc(N2CCC(N)CC2)nc(-c2ccc(C#N)c(F)c2)c1-c1ccc2nn(C)cc2c1 [Example 147, 4-[2-(4-aminopiperidin-1-yl)-6-methoxy-5-(2-methyl-2H-indazol-5-yl)pyrimidin-4-yl]-2-fluorobenzonitrile] | < 100 nM | < 100 nM
5 | COc1nc(N2CCCNCC2)nc(-c2ccc(C#N)c(F)c2)c1-c1ccc2nn(C)cc2c1 [Example 148, 4-[2-(1,4-diazepan-1-yl)-6-methoxy-5-(2-methyl-2H-indazol-5-yl)pyrimidin-4-yl]-2-fluorobenzonitrile] | < 100 nM | < 100 nM
6 | COc1nc(N2CCCC(N)CC2)nc(-c2ccc(C#N)c(F)c2)c1-c1ccc2nn(C)cc2c1 (stereo not drawn) [Example 149, 4-[2-(4-aminoazepan-1-yl)-6-methoxy-5-(2-methyl-2H-indazol-5-yl)pyrimidin-4-yl]-2-fluorobenzonitrile] | < 100 nM | < 100 nM
7 | COc1nc(N2CCC(N)CC2)nc(-c2ccc(C#N)c(F)c2)c1-c1ccc2cn(C)nc2c1 [Example 150, 4-[2-(4-aminopiperidin-1-yl)-6-methoxy-5-(2-methyl-2H-indazol-6-yl)pyrimidin-4-yl]-2-fluorobenzonitrile] | < 100 nM | < 100 nM
8 | COc1nc(N2CCC(N)CC2)nc(-c2ccc(C#N)c(F)c2)c1-c1ccc2c(c1)nnn2C [Example 151, 4-[2-(4-aminopiperidin-1-yl)-6-methoxy-5-(1-methyl-1H-1,2,3-benzotriazol-5-yl)pyrimidin-4-yl]-2-fluorobenzonitrile] | < 100 nM | < 100 nM
9 | COc1nc(N2CCC(N)CC2)nc(-c2ccc(C#N)cc2)c1-c1ccc2nn(C)cc2c1 [Example 152, 4-[2-(4-aminopiperidin-1-yl)-6-methoxy-5-(2-methyl-2H-indazol-5-yl)pyrimidin-4-yl]benzonitrile] | < 100 nM | < 100 nM
10 | COc1nc(N2CCC(N)CC2)nc(-c2ccc(C#N)cc2)c1-c1cnn(CC(F)(F)F)c1 [Example 153, 4-[2-(4-aminopiperidin-1-yl)-6-methoxy-5-[1-(2,2,2-trifluoroethyl)-1H-pyrazol-4-yl]pyrimidin-4-yl]benzonitrile] | < 100 nM | < 100 nM
11 | COc1nc(N2CCC(N)CC2)nc(-c2ccc(C#N)cc2)c1-c1ccc2c(c1)nnn2C [Example 154, 4-[2-(4-aminopiperidin-1-yl)-6-methoxy-5-(1-methyl-1H-1,2,3-benzotriazol-5-yl)pyrimidin-4-yl]benzonitrile] | < 100 nM | < 100 nM
12 | COc1nc(N2CCC(N)CC2)nc(-c2ccc(C#N)cc2)c1-c1ccc(N(C)C)nc1 [Example 155, 4-[2-(4-aminopiperidin-1-yl)-5-[6-(dimethylamino)pyridin-3-yl]-6-methoxypyrimidin-4-yl]benzonitrile] | < 100 nM | < 100 nM
13 | COc1nc(N2CCC(N)CC2)nc(-c2ccc(C#N)cc2)c1-c1cnc(N(C)C)nc1 [Example 156, 4-[2-(4-aminopiperidin-1-yl)-5-[2-(dimethylamino)pyrimidin-5-yl]-6-methoxypyrimidin-4-yl]benzonitrile] | < 100 nM | < 100 nM
14 | COc1nc(N2CCC(N)CC2)nc(-c2ccc(C#N)c(F)c2)c1-c1cnc2c(c1)nnn2C [Example 157, 4-[2-(4-aminopiperidin-1-yl)-6-methoxy-5-{3-methyl-3H-[1,2,3]triazolo[4,5-b]pyridin-6-yl}pyrimidin-4-yl]-2-fluorobenzonitrile] | < 100 nM | < 100 nM
15 | COc1nc(N2CCC(N)CC2)nc(-c2ccc(C#N)cc2)c1-c1cnc2c(c1)nnn2C [Example 158, 4-[2-(4-aminopiperidin-1-yl)-6-methoxy-5-{3-methyl-3H-[1,2,3]triazolo[4,5-b]pyridin-6-yl}pyrimidin-4-yl]benzonitrile] | < 100 nM | < 100 nM
16 | COc1nc(N2CCC(N)CC2)nc(-c2ccc(C#N)c(F)c2)c1-c1cnc2c(cnn2C)c1 [Example 159, 4-[2-(4-aminopiperidin-1-yl)-6-methoxy-5-{1-methyl-1H-pyrazolo[3,4-b]pyridin-5-yl}pyrimidin-4-yl]-2-fluorobenzonitrile] | < 100 nM | < 100 nM
17 | CNc1nc(N2CCC(N)CC2)nc(-c2ccc(C#N)c(F)c2)c1-c1ccc2nn(C)cc2c1 [Example 160, 4-[2-(4-aminopiperidin-1-yl)-5-(2-methyl-2H-indazol-5-yl)-6-(methylamino)-pyrimidin-4-yl]-2-fluorobenzonitrile] | < 100 nM | < 100 nM
18 | CNc1nc(N2CCC(N)CC2)nc(-c2ccc(C#N)c(F)c2)c1-c1ccc2c(cnn2C)c1 [Example 161, 4-[2-(4-aminopiperidin-1-yl)-5-(l-methyl-1H-indazol-5-yl)-6-(methylamino)pyrimidin-4-yl]-2-fluorobenzonitrile] | < 100 nM | < 100 nM

Continued, values first:

Row | IC50 (THP-1 (AML) cells) | IC50 (full-length human LSD1) | SMILES
19 | < 100 nM | < 100 nM | Cn1cnc2cc(-c3cnc(N4CCC(N)CC4)nc3-c3ccc(C#N)c(F)c3)c(F)c(F)c21 [Example 132, 4-[2-(4-aminopiperidin-1-yl)-5-(6,7-difluoro-1-methylbenzimidazol-5-yl)pyrimidin-4-yl]-2-fluorobenzonitrile]
20 | < 100 nM | < 100 nM | Cn1cnc2cc(-c3cnc(N4CCC(N)CC4)nc3-c3ccc(C#N)c(F)c3)c(F)cc21 [Example 133, 4-[2-(4-aminopiperidin-1-yl)-5-(6-fluoro-1-methylbenzimidazol-5-yl)pyrimidin-4-yl]-2-fluorobenzonitrile]
21 | < 100 nM | < 100 nM | CN(C)c1ncc(-c2cnc(N3CCC(N)CC3)nc2-c2ccc(C#N)c(F)c2)cn1 [Example 134, 4-[2-(4-aminopiperidin-1-yl)-5-[2-(dimethylamino)pyrimidin-5-yl]pyrimidin-4-yl]-2-fluorobenzonitrile]
22 | < 100 nM | < 100 nM | N#Cc1ccc(-c2nc(N3CCC(N)CC3)ncc2-c2cnc(N3CCCC3)nc2)cc1F [Example 135, 4-[2-(4-aminopiperidin-1-yl)-5-(2-pyrrolidin-1-ylpyrimidin-5-yl)pyrimidin-4-yl]-2-fluorobenzonitrile]
23 | < 100 nM | < 100 nM | Cn1cnc2cc(-c3cnc(N4CCC(N)CC4)nc3-c3ccc(C#N)c(F)c3)cnc21 [Example 136, 4-[2-(4-aminopiperidin-1-yl)-5-(3-methylimidazo[4,5-b]pyridin-6-yl)pyrimidin-4-yl]-2-fluorobenzonitrile]
24 | < 100 nM | < 100 nM | Cn1cnc2cc(-c3cnc(N4CCC5(CCNC5)CC4)nc3-c3ccc(C#N)c(F)c3)cnc21 [Example 137, 4-[2-(2,8-diazaspiro[4.5]decan-8-yl)-5-(3-methylimidazo[4,5-b]pyridin-6-yl)pyrimidin-4-yl]-2-fluorobenzonitrile]
25 | < 100 nM | < 100 nM | Cc1nc2cc(-c3cnc(N4CCC(N)CC4)nc3-c3ccc(C#N)c(F)c3)ccc2n1C [Example 138, 4-[2-(4-aminopiperidin-1-yl)-5-(1,2-dimethylbenzimidazol-5-yl)pyrimidin-4-yl]-2-fluorobenzonitrile]
26 | < 100 nM | < 100 nM | Cn1nnc2cc(-c3cnc(N4CCC(N)CC4)nc3-c3ccc(C#N)c(F)c3)cnc21 [Example 139, 4-[2-(4-aminopiperidin-1-yl)-5-(3-methyltriazolo[4,5-b]pyridin-6-yl)pyrimidin-4-yl]-2-fluorobenzonitrile]
27 | < 100 nM | < 100 nM | N#Cc1ccc(-c2nc(N3CCC(N)CC3)ncc2-c2cnc(NC3CC3)nc2)cc1F [Example 141, 4-[2-(4-aminopiperidin-1-yl)-5-[2-(cyclopropylamino)pyrimidin-5-yl]pyrimidin-4-yl]-2-fluorobenzonitrile]
28 | < 100 nM | < 100 nM | N#Cc1ccc(-c2nc(N3CCC(N)CC3)ncc2-c2cnn(C3CCOCC3)c2)cc1F [Example 142, 4-[2-(4-aminopiperidin-1-yl)-5-[1-(oxan-4-yl)pyrazol-4-yl]pyrimidin-4-yl]-2-fluorobenzonitrile]
29 | < 100 nM | < 100 nM | Cn1cc2cc(-c3cnc(N4CCC(N)C4)nc3-c3ccc(C#N)c(F)c3)ccc2n1 (stereo not drawn) [Example 143, 4-[2-(3-aminopyrrolidin-1-yl)-5-(2-methylindazol-5-yl)pyrimidin-4-yl]-2-fluorobenzonitrile]
30 | < 100 nM | < 100 nM | Cn1ncc2cc(-c3cnc(N4CCC(N)CC4)nc3-c3ccc(C#N)c(F)c3)cnc21 [Example 145, 4-[2-(4-aminopiperidin-1-yl)-5-(1-methylpyrazolo[3,4-b]pyridin-5-yl)pyrimidin-4-yl]-2-fluorobenzonitrile]
